Measured values published in patent US8815774B2, “Herbicidal composition and method of use thereof” (Syngenta Crop Protection LLC, priority 2006, dated 2014).

How the values were obtained:
Assay type in all cases: in vivo
[1] = tested on: Trifolium repens (white clover); assay: Glasshouse trial, control of white clover, pre-emergence application
Description: (§1) A glasshouse trial was carried out. Large crabgrass seeds were sown into standard glasshouse potting mix (1:1 v/v Promix:Vero sand soil) contained in 10 cm square plastic pots. Treatments were replicated three times. Mesotrione (in the form Callisto® 480SE) was applied pre-emergence to large crabgrass (Digitaria sanguinalis) at either 12 g ai/ha or 24 g ai/ha with or without sulfentrazone (in the form Authority®). When used, sulfentrazone was applied at a rate of 140 g ai/ha or 280 g ai/ha. The adjuvant system was X-77 at 0.1% v/v in deionised water. 200 litres of herbicide/adjuvant system was used per hectare. General weed control was evaluated at 7 days after treatment (DAT). It is noted that all herbicides were applied at reduced field rates because herbicide effects are magnified in a glasshouse environment. Rates were chosen to give a 50 to 70% level of control with herbicides applied alone as this allows for detection of any synergistic effect when tank mixtures are used.
(§2) It is noted that control of large crabgrass with the higher rate of mesotrione alone was too high to allow for detection synergy when mesotrione was mixed with sulfentrazone. The lower rate of mesotrione was therefore used in this analysis. […] The results were evaluated using the Colby formula. The expected result for (A+B) is (A+B)−(A×B/100) where A and B are the ‘observed’ results for A and B on their own.
(§3) A glasshouse trial was set up as described in Example 1, except using carfentrazone instead of sulfentrazone, Trifolium repens (white clover) instead of large crabgrass, and different herbicide rates.

[2] = tested on: Trifolium repens (white clover); assay: Glasshouse trial, control of white clover, post-emergence application
Description: as §1, §2, §3
A glasshouse trial was set up as described in Example 2, except using applying the mixture post emergence rather than pre-emergence.

[3] = tested on: large crabgrass (Digitaria sanguinalis); assay: Glasshouse trial, control of large crabgrass, pre-emergence application
Description: as §1, with “used. It is noted that control of large crabgrass with the higher rate of mesotrione alone was too high to allow for detection synergy when mesotrione was mixed with sulfentrazone. The lower rate of mesotrione was therefore used in this analysis. […] The results were evaluated using the Colby formula. The expected result for (A+B) is (A+B)−(A×B/100) where A and B are the ‘observed’ results for A and B on their own.” for “used.”

[4] = carfentrazone 18 g ai/ha plus mesotrione 25 g ai/ha
[5] = carfentrazone 18 g ai/ha plus mesotrione 50 g ai/ha
[6] = carfentrazone 36 g ai/ha plus mesotrione 25 g ai/ha
[7] = carfentrazone 36 g ai/ha plus mesotrione 50 g ai/ha
[8] = carfentrazone 18 g ai/ha plus mesotrione 100 g ai/ha
[9] = carfentrazone 18 g ai/ha plus mesotrione 150 g ai/ha
[10] = carfentrazone 36 g ai/ha plus mesotrione 100 g ai/ha
[11] = carfentrazone 36 g ai/ha plus mesotrione 150 g ai/ha

## Cc1nn(-c2cc(CC(Cl)C(=O)O)c(Cl)cc2F)c(=O)n1C(F)F (centres unmarked) [Carfentrazone]
[1]; [4]
  Actual control, Plus Mesotrione at 25 g ai/ha: 55
  Expected control, Plus Mesotrione at 25 g ai/ha: 50
[1]; [5]
  Actual control, Plus Mesotrione at 50 g ai/ha: 75
  Expected control, Plus Mesotrione at 50 g ai/ha: 62
[1]; [6]
  Actual control, Plus Mesotrione at 25 g ai/ha: 73
  Expected control, Plus Mesotrione at 25 g ai/ha: 49
[1]; [7]
  Actual control, Plus Mesotrione at 50 g ai/ha: 85
  Expected control, Plus Mesotrione at 50 g ai/ha: 61
[2]; [8]
  Actual control, Plus Mesotrione at 100 g ai/ha: 70
  Expected control, Plus Mesotrione at 100 g ai/ha: 43
[2]; [9]
  Actual control, Plus Mesotrione at 150 g ai/ha: 93
  Expected control, Plus Mesotrione at 150 g ai/ha: 65
[2]; [10]
  Actual control, Plus Mesotrione at 100 g ai/ha: 72
  Expected control, Plus Mesotrione at 100 g ai/ha: 53
[2]; [11]
  Actual control, Plus Mesotrione at 150 g ai/ha: 93
  Expected control, Plus Mesotrione at 150 g ai/ha: 71

## Cc1nn(-c2cc(NS(C)(=O)=O)c(Cl)cc2Cl)c(=O)n1C(F)F [Sulfentrazone, 2′,4′-dichloro-5′-(4-difluoromethyl-4,5-dihydro-3-methyl-5-oxo-1H-1,2,4-triazol-1-yl)methanesulfonanilide]
[3]; mesotrione 12 g ai/ha with sulfentrazone 140 g ai/ha
  synergy (Colby formula and Student-Newman-Keuls multiple range test): synergy was seen
[3]; sulfentrazone 140 g ai/ha plus mesotrione 12 g ai/ha, 7 DAT
  Expected control (Colby formula), Plus Mesotrione at 12 g ai/ha: 87.0
[3]; sulfentrazone 140 g ai/ha tank mixed with mesotrione 12 g ai/ha, 7 DAT
  Actual control, Plus Mesotrione at 12 g ai/ha: 100
[3]; sulfentrazone alone (lower rate, 140 g ai/ha), 7 DAT
  control of large crabgrass, herbicide on its own: 75%
